# Reference: paper doi:10.1101/2024.02.23.581731v1 (biorxiv, 2024)
# Numbering of substitutions follows the chain as printed.
# What was measured:
# h5-HT3AR [1] = target: T1, h5-HT3AR (Homo sapiens, UniProt P46098, M223D); test: FLIPR Blue membrane potential assay, inhibition of 5-HT response; format: cell-based
# T1 sequence (P46098 24-478 M223D): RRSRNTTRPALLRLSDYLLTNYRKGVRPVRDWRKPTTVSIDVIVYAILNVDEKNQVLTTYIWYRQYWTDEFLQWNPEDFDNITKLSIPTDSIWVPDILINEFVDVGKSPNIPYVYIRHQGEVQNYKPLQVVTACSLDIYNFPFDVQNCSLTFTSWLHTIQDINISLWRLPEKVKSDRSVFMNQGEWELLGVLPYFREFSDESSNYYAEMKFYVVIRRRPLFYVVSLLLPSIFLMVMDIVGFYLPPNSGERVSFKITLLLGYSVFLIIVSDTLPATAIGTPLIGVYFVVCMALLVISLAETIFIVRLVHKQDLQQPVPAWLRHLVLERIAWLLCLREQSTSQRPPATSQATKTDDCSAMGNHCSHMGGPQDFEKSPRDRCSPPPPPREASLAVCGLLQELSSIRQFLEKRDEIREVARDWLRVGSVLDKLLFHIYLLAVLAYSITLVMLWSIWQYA
# r5-HT3AR [2] = target: T2, r5-HT3AR (Rattus norvegicus, UniProt P35563); test: as above; format: cell-based
# T2 sequence (P35563 24-483): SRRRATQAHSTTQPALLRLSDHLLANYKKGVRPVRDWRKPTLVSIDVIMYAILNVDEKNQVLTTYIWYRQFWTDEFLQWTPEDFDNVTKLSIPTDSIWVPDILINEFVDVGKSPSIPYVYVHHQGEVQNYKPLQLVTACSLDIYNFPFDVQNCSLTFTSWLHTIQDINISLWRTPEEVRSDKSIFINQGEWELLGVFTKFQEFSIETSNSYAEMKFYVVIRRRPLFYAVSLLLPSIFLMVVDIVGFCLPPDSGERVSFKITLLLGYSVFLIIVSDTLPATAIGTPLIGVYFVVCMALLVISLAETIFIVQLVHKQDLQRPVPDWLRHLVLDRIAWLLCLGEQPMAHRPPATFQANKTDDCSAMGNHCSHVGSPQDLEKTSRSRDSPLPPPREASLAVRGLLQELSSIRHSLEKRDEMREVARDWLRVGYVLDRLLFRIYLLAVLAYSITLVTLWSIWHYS
# h5-HT3AR [3] = target: T3, h5-HT3AR (Homo sapiens, UniProt P46098); test: [3H]-GR65630 displacement, HEK-293 membranes; format: binding
# T3 sequence (P46098 24-478): T1 sequence (P46098 24-478 M223D) with D200M
# h5-HT3AR [4] = target: T3, h5-HT3AR; test: TEVC, Xenopus oocytes, activation; format: cell-based
# r5-HT3AR [5] = target: T4, r5-HT3AR (Rattus norvegicus, UniProt P35563, I207V); test: FLIPR Blue membrane potential assay, inhibition of 5-HT response; format: cell-based
# T4 sequence (P35563 24-483 I207V): T2 sequence (P35563 24-483) with I184V
# h5-HT3AR [6] = target: T5, h5-HT3AR (Homo sapiens, UniProt P46098, S225T); test: as above; format: cell-based
# T5 sequence (P46098 24-478 S225T): T1 sequence (P46098 24-478 M223D) with D200M, S202T
smiles,measurement,setting,value
Cc1ccc(Sc2ccccc2N2CCNCC2)c(C)c1 [vortioxetine],IC50,h5-HT3AR [1],375 nM
same,IC50,r5-HT3AR [2],26 nM
same,Ki,h5-HT3AR [3],24 nM
same,EC50,h5-HT3AR [4],150 nM
same,IC50,r5-HT3AR [5],10 nM
same,IC50,h5-HT3AR [6],58 nM
